Results from publication PMC11500415, “Chemical inhibition of stomatal differentiation by perturbation of the master-regulatory bHLH heterodimer via an ACT-Like domain” (Nature Communications, 2024).
Several values for one entry are separate records, joined by “and”; a condition that tells them apart may be missing. Equal values may be shown once.

Tests used:
Assay type in all cases: cell-based
MUTE+AD (control yeast) = biological target: T1, MUTE+AD (control yeast) (Arabidopsis thaliana, UniProt Q9M8K6); assay: Y2H quantitative α-galactosidase assay, control pair MUTE+AD; conditions: individual replicates, listed as AYSJ929
T1 construct: expressed in transfected cells; host or cells: yeast strain AH109
T1 sequence (Q9M8K6 1-202): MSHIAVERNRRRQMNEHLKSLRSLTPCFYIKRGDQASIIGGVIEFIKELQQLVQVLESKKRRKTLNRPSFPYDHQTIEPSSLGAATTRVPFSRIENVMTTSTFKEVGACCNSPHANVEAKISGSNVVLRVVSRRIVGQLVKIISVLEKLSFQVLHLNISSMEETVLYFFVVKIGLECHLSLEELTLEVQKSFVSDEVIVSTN
From the text: Supplement 41467_2024_53214_MOESM7_ESM.xlsx, sheet "Fig.6b" | column: a-galactosidase [milliunits /(ml x cell)]

SCRM-MUTE heterodimer = biological target: T2, SCRM-MUTE heterodimer (Arabidopsis thaliana, UniProt Q9M8K6); assay: Y2H growth and quantitative α-galactosidase assay; conditions: for a-galactosidase: yeast MUTE+SCRM, individual replicates, listed as AYSJ929
T2 construct: expressed in transfected cells; host or cells: yeast strain AH109
T2 sequence (Q9M8K6 1-202): T1 sequence (Q9M8K6 1-202)
Procedure: (§1) Y2H assays were performed using the Matchmaker^TM Two-Hybrid System (Clontech). Bait (pGBKT7) and prey (pGADT7) constructs were co-transformed into the yeast strain AH109 using Frozen-EZ Yeast Transformation II Kit (Zymo Research, T2001). The resulting transformants were spotted on SD ( − Leu, −Trp) and SD ( − Trp, −Leu, −His) selection media containing different concentrations of 3-amino-1,2,4-triazole (Sigma, A8056) as previously reported. Quantitative α-galactosidase assay was also performed according to manufactural instruction (Clontech). Briefly, the transformants were incubated in 2 ml SD medium with 0, 10, 50 100 μM Stomidazolone (3) or SIM3* (7) with rotary shake (220 rpm) at 30 °C overnight. The cultured media containing yeast were transferred to microtubes and centrifuged to obtain the supernatant. The colorimetric assay was performed by incubating 8 μL of supernatant with 24 μL Assay Buffer that contains 0.5 M sodium acetate (pH 4.5) (Nakalai tesque, 31137-25): 100 mM p-nitrophenyl α-D-Galactopyranoside Solution (Sigma N0877) = 2:1 (v/v) at 30 °C for 60 min, then terminated by adding 960 μL 1X Stop Solution (0.1 M sodium carbonate, Fujifilm Wako 195-01582). After OD410 was recorded, α-galactosidase units were calculated according to the protocol (Clontech, P3024-1).

SCRM-FAMA heterodimer = biological target: T3, SCRM-FAMA heterodimer (Arabidopsis thaliana, UniProt Q56YJ8); assay: Y2H growth and quantitative α-galactosidase assay; conditions: for a-galactosidase: yeast FAMA∆N+SCRM, individual replicates, listed as AYSJ929
T3 construct: truncated SPCH and FAMA proteins lacking their N-terminal domain were used in yeast; expressed in transfected cells; host or cells: yeast strain AH109
Procedure: as §1

SCRM-SPCH heterodimer = biological target: T4, SCRM-SPCH heterodimer (Arabidopsis thaliana, UniProt Q700C7); assay: Y2H growth and quantitative α-galactosidase assay; conditions: for a-galactosidase: yeast SPCH∆N+SCRM, individual replicates, listed as AYSJ929
T4 construct: truncated SPCH and FAMA proteins lacking their N-terminal domain were used in yeast; expressed in transfected cells; host or cells: yeast strain AH109
T4 sequence (Q700C7 98-364 limits assumed): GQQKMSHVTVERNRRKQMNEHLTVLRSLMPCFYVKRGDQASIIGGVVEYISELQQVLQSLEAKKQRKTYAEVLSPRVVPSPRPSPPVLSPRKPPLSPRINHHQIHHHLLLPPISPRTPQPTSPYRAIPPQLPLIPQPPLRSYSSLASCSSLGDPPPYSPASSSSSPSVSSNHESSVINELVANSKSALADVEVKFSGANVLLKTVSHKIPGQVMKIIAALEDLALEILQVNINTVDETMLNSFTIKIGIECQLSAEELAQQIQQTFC
Procedure: as §1

T3 sequence (Q56YJ8 190-414, one chain of several): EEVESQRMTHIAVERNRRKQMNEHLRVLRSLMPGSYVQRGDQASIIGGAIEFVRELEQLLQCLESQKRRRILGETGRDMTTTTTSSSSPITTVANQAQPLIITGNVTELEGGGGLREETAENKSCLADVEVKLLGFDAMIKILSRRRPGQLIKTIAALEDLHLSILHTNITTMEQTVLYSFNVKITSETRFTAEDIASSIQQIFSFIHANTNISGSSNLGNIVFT

In the case of `O=C1C(c2ccccc2)=NC(NS(=O)(=O)c2ccccc2)(c2ccccc2)N1S(=O)(=O)c1ccccc1` (stereo not drawn) [Stomidazolone], the a-galactosidase (MUTE+AD (control yeast); 10 µM) is reported as 0.24 milliunits /(ml x cell) and 0.60 milliunits /(ml x cell) and 0.40 milliunits /(ml x cell), the a-galactosidase (MUTE+AD (control yeast); 50 µM) is reported as 0.22 milliunits /(ml x cell) and 0.36 milliunits /(ml x cell) and 0.19 milliunits /(ml x cell) and the a-galactosidase (MUTE+AD (control yeast); 100 µM) is reported as 0.20 milliunits /(ml x cell) and 0.52 milliunits /(ml x cell) and 0.42 milliunits /(ml x cell). For the same compound, the “effect in quantitative α-galactosidase assay” value (SCRM-MUTE heterodimer; 0, 10, 50, 100 μM) was “inhibits these stomatal bHLH heterodimers in a dose-dependent manner”, the “effect on association in Y2H growth assay” value (from here on “effect on association”) (SCRM-MUTE heterodimer; 50 μM, 1 mM 3-AT) was “diminishes” and the a-galactosidase (SCRM-MUTE heterodimer; 10 µM) was 6.11 milliunits /(ml x cell) and 7.57 milliunits /(ml x cell) and 6.75 milliunits /(ml x cell). The a-galactosidase (SCRM-MUTE heterodimer; 50 µM) was 4.46 milliunits /(ml x cell) and 5.23 milliunits /(ml x cell) and 6.35 milliunits /(ml x cell), the a-galactosidase (SCRM-MUTE heterodimer; 100 µM) was 5.40 milliunits /(ml x cell) and 3.71 milliunits /(ml x cell) and 5.42 milliunits /(ml x cell) and the “effect in quantitative α-galactosidase assay” value (SCRM-FAMA heterodimer; 0, 10, 50, 100 μM) was “inhibits these stomatal bHLH heterodimers in a dose-dependent manner”. For the same compound, the “effect on association” value (SCRM-FAMA heterodimer; 50 μM, 1 mM 3-AT, N-terminally truncated FAMA) was “diminishes”, the a-galactosidase (SCRM-FAMA heterodimer; 10 µM) was 9.32 milliunits /(ml x cell) and 7.38 milliunits /(ml x cell) and 8.74 milliunits /(ml x cell) and the a-galactosidase (SCRM-FAMA heterodimer; 50 µM) was 7.60 milliunits /(ml x cell) and 6.41 milliunits /(ml x cell) and 6.17 milliunits /(ml x cell). For the same compound, the a-galactosidase (SCRM-FAMA heterodimer; 100 µM) was 5.72 milliunits /(ml x cell) and 5.36 milliunits /(ml x cell) and 4.71 milliunits /(ml x cell), the “effect in quantitative α-galactosidase assay” value (SCRM-SPCH heterodimer; 0, 10, 50, 100 μM) was “slightly less impact” and the “effect on association” value (SCRM-SPCH heterodimer; 50 μM, 1 mM 3-AT, N-terminally truncated SPCH) was “diminishes”. For the same compound, the a-galactosidase (SCRM-SPCH heterodimer; 10 µM) was 5.51 milliunits /(ml x cell) and 5.69 milliunits /(ml x cell) and 5.47 milliunits /(ml x cell), the a-galactosidase (SCRM-SPCH heterodimer; 50 µM) was 5.02 milliunits /(ml x cell) and 5.49 milliunits /(ml x cell) and 5.63 milliunits /(ml x cell) and the a-galactosidase (SCRM-SPCH heterodimer; 100 µM) was 5.62 milliunits /(ml x cell) and 5.13 milliunits /(ml x cell).
